# Target: human VR1 (Homo sapiens, UniProt Q8NER1)
# Test: Human VR1 antagonist assay (Ca2+ imaging)
# Assay type: cell-based
# Conditions: Ca2+ imaging in human VR1 expressing cells; agonist stimulation (capsaicin 300 nM or acid pH 5.8) not given
# Excerpt: VR1 antagonistic activity can be determined by the Ca^2+ imaging assay using human VR1 highly expressing cells. The cells that highly express human VR1 receptors are obtainable from several different conventional methods. The one standard method is cloning from human Dorsal Root Ganglion (DRG) or kidney according to the methods such as described in the journal article; Nature, 389, pp816-824, 1997. Alternatively VR1 receptors highly expressing human keratinocytes are also known and published in the journal article (Biochemical and Biophysical Research Communications, 291, pp124-129, 2002). […] Furthermore, the method to up regulate human VR1 gene, which is usually a silent gene or don't produce detectable level of VR1 receptors, is also available to obtain propriety cells. Such genetic modification method was described in detail; Nat. Biotechnol., 19, pp440-445, 2001.
# The cells that express human VR1 receptors were maintained in culture flask at 37° C. in an environment containing 5% CO2 until use in the assay. The intracellular Ca^2+ imaging assay to determine VR1 antagonistic activities were done by following procedures.
# The culture medium was removed from the flask and fura-2/AM fluorescent calcium indicator was added to the flask at a concentration of 5 μM in the medium. The flask was placed in CO2 incubator and incubated for 1 hour. Then the cells expressing the human VR1 receptors were detached from the flask follow by washing with phosphate buffer saline, PBS(−) and re-suspended in assay buffer. The 80 μl of aliquot of cell suspension (3.75×10^5 cells/ml) was added to the assay plate and the cells were spun down by centrifuge (950 rpm, 20° C., 3 minutes).
# The capsaicin-induced changes in the intracellular calcium concentration were monitored using FDSS 6000 (Hamamatsu Photonics, Japan), a fluorometric imaging system. The cell suspension in Krebs-Ringer HEPES (KRH) buffer (115 mM NaCl, 5.4 mM KCl, 1 mM MgSO4, 1.8 mM CaCl2, 11 mM D-Glucose, 25 mM HEPES, 0.96 mM Na2HPO4, pH 7.3) were pre-incubated with varying concentrations of the test compounds or KRH buffer (buffer control) for 15 minutes at room temperature under the dark condition. Then capsaicin solution, which gives 300 nM in assay mixture, was automatically added to the assay plate by the FDSS 6000.
# The Acid-induced changes in the intracellular calcium concentration were monitored using FDSS 6000 (Hamamatsu Photonics, Japan), a fluorometric imaging system. The cell suspension in resting buffer (HBSS supplemented with 10 mM HEPES, pH 7.4) were pre-incubated with varying concentrations of the test compounds or resting buffer (buffer control) for 15 minutes at room temperature under the dark condition. The cells were automatically added the stimulating solution (HBSS supplemented with MES, final assay buffer pH5.8) by the FDSS 6000.
# The monitoring of the changes in the fluorescence signals (λex=340 nm/380 nm, λem=510-520 nm) was initiated at 1 minute prior to the addition of capsaicin solution or acidic buffer and continued for 5 minute.
# The compounds of the examples were tested in the Human VR1 antagonist assay described above.
# Sequence of human VR1 (Q8NER1 whole entry): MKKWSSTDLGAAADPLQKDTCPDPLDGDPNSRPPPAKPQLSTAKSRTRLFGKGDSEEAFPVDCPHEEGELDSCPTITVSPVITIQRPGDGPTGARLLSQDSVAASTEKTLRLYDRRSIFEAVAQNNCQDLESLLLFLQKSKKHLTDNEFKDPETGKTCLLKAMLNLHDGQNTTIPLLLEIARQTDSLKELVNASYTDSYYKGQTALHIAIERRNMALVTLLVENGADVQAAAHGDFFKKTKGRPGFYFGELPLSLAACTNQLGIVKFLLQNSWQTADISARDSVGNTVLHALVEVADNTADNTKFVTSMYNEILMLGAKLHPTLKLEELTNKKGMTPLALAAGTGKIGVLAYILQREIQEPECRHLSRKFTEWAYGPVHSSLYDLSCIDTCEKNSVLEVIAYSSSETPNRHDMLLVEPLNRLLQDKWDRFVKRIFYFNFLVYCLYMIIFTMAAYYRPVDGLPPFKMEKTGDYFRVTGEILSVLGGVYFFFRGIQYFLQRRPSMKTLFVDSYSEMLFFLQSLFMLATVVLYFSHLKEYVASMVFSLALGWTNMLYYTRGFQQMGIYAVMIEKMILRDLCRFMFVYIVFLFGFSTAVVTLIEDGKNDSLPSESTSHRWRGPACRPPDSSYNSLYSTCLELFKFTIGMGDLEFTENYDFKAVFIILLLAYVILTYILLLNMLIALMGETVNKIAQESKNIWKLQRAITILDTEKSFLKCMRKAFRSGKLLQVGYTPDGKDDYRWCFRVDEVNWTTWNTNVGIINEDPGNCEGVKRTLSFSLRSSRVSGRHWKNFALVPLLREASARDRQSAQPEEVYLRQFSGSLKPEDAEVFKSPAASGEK
row,SMILES,IC50 [nM]
1,"CC(C)(C)c1ccc(OCC(=O)NCc2ccc3[nH]c(=O)[nH]c3c2)cc1 [Example 1, 2-(4-tert-Butylphenoxy)-N-[(2-oxo-2,3-dihydro-1H-benzimidazol-5-yl)methyl]acetamide]",421
2,"CC(C)(C)c1c(F)cc(OCC(=O)NCc2ccc3[nH]c(=O)[nH]c3c2)cc1F [Example 3, 2-(4-tert-butyl-3,5-difluorophenoxy)-N-[(2-oxo-2,3-dihydro-1H-benzimidazol-5-yl)methyl]acetamide]",97
3,"CC(C)(C)c1ccc(OCC(=O)NCc2ccc3[nH]c(=O)[nH]c3c2)cc1Cl [Example 4, 2-(4-tert-Butyl-3-chlorophenoxy)-N-[(2-oxo-2,3-dihydro-1H-benzimidazol-5-yl)methyl]acetamide]",86
4,"Cn1c(=O)[nH]c2cc(CNC(=O)COc3ccc(C(C)(C)C)cc3)ccc21 [Example 5, 2-(4-tert-butylphenoxy)-N-[(1-methyl-2-oxo-2,3-dihydro-1H-benzimidazol-5-yl)methyl]acetamide]",462
5,"Cn1c(=O)[nH]c2ccc(CNC(=O)COc3ccc(C(C)(C)C)c(Cl)c3)cc21 [Example 8, 2-(3-chloro-4-tert-butylphenoxy)-N-[(3-methyl-2-oxo-2,3-dihydro-1H-benzimidazol-5-yl)methyl]acetamide]",481
6,"CC(C)(C)c1ccc(OCC(=O)NCc2ccc3[nH]c(=O)oc3c2)cc1Cl [Example 10, 2-(3-chloro-4-tert-butylphenoxy)-N-[(2-oxo-2,3-dihydro-1,3-benzoxazol-6-yl)methyl]acetamide]",413
7,"CC(C)(C)c1ccc(OCC(=O)NCc2ccc3[nH]cnc3c2)cc1 [Example 11, 2-(4-tert-butylphenoxy)-N-(1H-benzindazol-5-ylmethyl)acetamide]",837
8,"CC(C)(C)c1ccc(OCC(=O)NCc2ccc3[nH]cnc3c2)cc1 [Example 12, N-(1H-benzimidazol-5-ylmethyl)-2-(4-tert-butylphenoxy)acetamide]",286
9,"CC(NC(=O)COc1cc(F)c(C(C)(C)C)c(F)c1)c1ccc2[nH]c(=O)[nH]c2c1 (stereo not drawn) [Example 13, 2-(4-tert-Butyl-3,5-difluorophenoxy)-N-[1-(2-oxo-2,3-dihydro-1H-benzimidazol-5-yl)ethyl]acetamide]",50

# Other lines, results leading:
row,IC50 [nM],SMILES
1,250 to 350,"Oc1cc2c(cc1O)CN(C(=S)NCCc1ccc(Cl)cc1)CCC2 [Capsazepine, reference compound]"
2,111,"CC(C)(C)c1ccc(OCC(=O)NCc2ccc3[nH]c(=O)[nH]c3c2)cc1F [Example 2, 2-(4-tert-butyl-3-fluorophenoxy)-N-[(2-oxo-2,3-dihydro-1H-benzimidazol-5-yl)methyl]acetamide]"
3,175,"Cn1c(=O)[nH]c2cc(CNC(=O)COc3ccc(C(C)(C)C)c(Cl)c3)ccc21 [Example 7, 2-(4-tert-butyl-3-chlorophenoxy)-N-[(1-methyl-2-oxo-2,3-dihydro-1H-benzimidazol-5-yl)methyl]acetamide]"
4,478,"CC(C)(C)c1ccc(OCC(=O)NCc2ccc3c(c2)CC(=O)N3)cc1Cl [Example 9, 2-(3-chloro-4-tert-butylphenoxy)-N-[(2-oxo-2,3-dihydro-1H-indol-5-yl)methyl]acetamide]"
5,31,"C[C@@H](NC(=O)COc1cc(F)c(C(C)(C)C)c(F)c1)c1ccc2nn[nH]c2c1 [Example 14, N-[(1R)-1-(1H-1,2,3-Benzotriazol-6-yl)ethyl]-2-(4-tert-butyl-3,5-difluorophenoxy)acetamide]"
6,71,"CC(NC(=O)COc1cc(F)c(C(C)(C)C)c(F)c1)c1ccc2ncsc2c1 (stereo not drawn) [Example 15, N-[1-(1,3-benzothiazol-6-yl)ethyl]-2-(4-tert-butyl-3,5-difluorophenoxy)acetamide]"
